Activity calls are given as the source filed them. The calls are words filed in the database; no cut-off is given here.
Tests used:
HCT-116 = experiment: cells; conditions: Homo sapiens, HCT-116, 72 h
A549 = experiment: Cytotoxicity against human A549 cells after 72 hrs by MTT assay; type: functional, cell-based; conditions: A549, 72 h
PC-3 = experiment: cells; conditions: Homo sapiens, PC-3, 72 h
Description: Cytotoxicity against human PC3 cells after 72 hrs by MTT assay

HL-60 = experiment: Cytotoxicity against human HL60 cells after 72 hrs by MTT assay; type: functional, cell-based; conditions: HL-60, 72 h
KB = experiment: Cytotoxicity against human KB cells after 72 hrs by MTT assay; type: functional, cell-based
[1] = target: T1, Phosphatidylinositol 4,5-bisphosphate 3-kinase catalytic subunit alpha isoform (Homo sapiens, UniProt P42336); experiment: Inhibition of human recombinant PI3Kalpha assessed as production of 3,4,5-inositoltriphosphate after 3 hrs by fluorescence polarization assay
[2] = target: T1, Phosphatidylinositol 4,5-bisphosphate 3-kinase catalytic subunit alpha isoform; experiment: Inhibition of PI3K in human PC3 cells assessed as suppression of Akt Ser473 phosphorylation at 10 uM after 3 hrs by SDS-PAGE and Western blot analysis; type: cell-based; conditions: PC-3

T1 sequence (P42336 whole entry, canonical isoform): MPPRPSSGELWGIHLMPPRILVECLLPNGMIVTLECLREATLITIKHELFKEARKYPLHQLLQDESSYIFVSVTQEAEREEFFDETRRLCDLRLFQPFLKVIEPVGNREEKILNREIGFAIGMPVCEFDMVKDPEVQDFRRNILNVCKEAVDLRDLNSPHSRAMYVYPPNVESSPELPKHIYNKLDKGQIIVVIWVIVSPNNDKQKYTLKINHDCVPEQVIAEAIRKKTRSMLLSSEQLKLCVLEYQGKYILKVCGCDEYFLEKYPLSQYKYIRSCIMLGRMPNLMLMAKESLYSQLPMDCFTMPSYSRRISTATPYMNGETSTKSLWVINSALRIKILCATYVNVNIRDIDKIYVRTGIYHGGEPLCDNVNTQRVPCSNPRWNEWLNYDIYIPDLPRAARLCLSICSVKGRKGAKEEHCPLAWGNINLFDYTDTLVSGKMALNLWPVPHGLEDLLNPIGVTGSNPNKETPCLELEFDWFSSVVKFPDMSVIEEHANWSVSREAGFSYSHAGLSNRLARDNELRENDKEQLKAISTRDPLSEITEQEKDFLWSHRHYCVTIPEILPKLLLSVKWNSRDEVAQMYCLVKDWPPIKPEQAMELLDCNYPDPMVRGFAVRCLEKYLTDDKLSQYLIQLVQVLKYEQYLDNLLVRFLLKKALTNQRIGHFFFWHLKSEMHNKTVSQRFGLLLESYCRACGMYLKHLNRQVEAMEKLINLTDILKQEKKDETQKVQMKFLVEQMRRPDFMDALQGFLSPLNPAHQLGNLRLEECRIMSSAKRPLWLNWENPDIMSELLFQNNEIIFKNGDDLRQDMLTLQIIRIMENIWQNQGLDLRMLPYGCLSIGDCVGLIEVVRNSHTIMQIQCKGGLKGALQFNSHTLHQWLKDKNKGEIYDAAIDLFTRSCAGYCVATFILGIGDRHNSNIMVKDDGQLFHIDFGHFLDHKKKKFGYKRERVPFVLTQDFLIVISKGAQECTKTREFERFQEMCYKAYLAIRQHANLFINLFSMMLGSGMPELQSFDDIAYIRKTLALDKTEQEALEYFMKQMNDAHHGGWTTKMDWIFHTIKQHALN

Structure (SMILES) | IC50 (HCT-116) | IC50 (A549) | IC50 (PC-3) | IC50 (HL-60) | IC50 (KB) | IC50 [1] | inhibition [2]
Cc1ccc(S(=O)(=O)c2nc3ccccc3nc2Nc2cccc(N)c2)cc1 | 2.39 µM | 1.95 µM | 2 µM | 1.08 µM | 10.6 µM | – | –
COc1cc(Nc2nc3ccccc3nc2S(=O)(=O)c2ccc(C)cc2)cc(OC)c1OC | 10.8 µM | 5.61 µM | 4.85 µM | 0.32 µM | – | – | –
COc1ccc(S(=O)(=O)c2nc3ccccc3nc2Nc2cccc(N)c2)cc1 | 3.71 µM | 0.34 µM | 8.6 µM | 1.49 µM | 4.96 µM | – | –
COc1ccc(S(=O)(=O)c2nc3ccccc3nc2Nc2ccc(Cl)cc2)cc1 | 26.5 µM | 87.3 µM | 31.8 µM | 19.6 µM | 49.8 µM | – | –
COc1cc(Nc2nc3ccccc3nc2S(=O)(=O)c2ccccc2)cc(OC)c1 | 0.95 µM | 0.07 µM | 0.14 µM | 0.05 µM | – | 0.07 µM | –
COc1ccc(Nc2nc3ccccc3nc2S(=O)(=O)c2ccc(F)cc2)cc1 | 3.01 µM | 4.84 µM | 4.33 µM | 1.2 µM | – | – | –
O=S(=O)(c1ccc(Br)cc1)c1nc2ccccc2nc1Nc1ccccc1 | 1.11 µM | 10.8 µM | 1.18 µM | 0.13 µM | 5.1 µM | – | –
COc1ccc(S(=O)(=O)c2nc3ccccc3nc2Nc2ccccc2)cc1 | 1.26 µM | 13.2 µM | 1.26 µM | 0.26 µM | 9.89 µM | – | –
O=S(=O)(c1ccccc1)c1nc2ccccc2nc1Nc1ccc(F)cc1 | 5.19 µM | > 50 µM | 14.2 µM | 1.01 µM | > 50 µM | – | –
COc1ccc(S(=O)(=O)c2nc3ccccc3nc2Nc2cc(OC)cc(OC)c2)cc1 | 13.4 µM | 12.7 µM | 6.22 µM | 1.71 µM | – | – | –
O=S(=O)(c1ccc(Br)cc1)c1nc2ccccc2nc1Nc1ccc(F)cc1 | 1.67 µM | 4.36 µM | 9.16 µM | 0.26 µM | 2.28 µM | – | –
Cc1ccc(S(=O)(=O)c2nc3ccccc3nc2Nc2cccc(O)c2)cc1 | 3.81 µM | 6.08 µM | 1.69 µM | 0.4 µM | 5.35 µM | > 1 µM | –
Cc1ccc(S(=O)(=O)c2nc3ccccc3nc2Nc2ccc(N)cc2)cc1 | 11.5 µM | 24.6 µM | 5 µM | 1.22 µM | 5.63 µM | – | –
COc1ccc(S(=O)(=O)c2nc3ccccc3nc2Nc2cccc(O)c2)cc1 | 0.82 µM | 6.11 µM | 1.63 µM | 0.14 µM | 8.27 µM | > 1 µM | –
Nc1ccc(Nc2nc3ccccc3nc2S(=O)(=O)c2ccc(F)cc2)cc1 | 10.1 µM | 12.7 µM | 2.05 µM | 1.62 µM | – | – | –
Nc1cccc(Nc2nc3ccccc3nc2S(=O)(=O)c2ccc(F)cc2)c1 | 6.79 µM | 6.84 µM | 1.98 µM | 4.04 µM | – | – | –
COc1ccc(Nc2nc3ccccc3nc2S(=O)(=O)c2ccc(Br)cc2)cc1 | 3.4 µM | 3.34 µM | 1.11 µM | 1.19 µM | – | – | –
O=S(=O)(c1ccccc1)c1nc2ccccc2nc1Nc1cccc(O)c1 | 1.15 µM | 5.73 µM | 1.68 µM | 0.22 µM | 8.42 µM | > 1 µM | –
COc1cc(Nc2nc3ccccc3nc2S(=O)(=O)c2ccc(F)cc2)cc(OC)c1 | 3.93 µM | 5.45 µM | 4.53 µM | 2.36 µM | – | – | –
COc1ccc(Nc2nc3ccccc3nc2S(=O)(=O)c2ccccc2)cc1 | 2.42 µM | 11.9 µM | 1.51 µM | 0.64 µM | – | – | –
COc1cc(Nc2nc3ccccc3nc2S(=O)(=O)c2ccccc2)cc(OC)c1OC | > 50 µM | 9.66 µM | 29.1 µM | 1.77 µM | – | – | –
Cc1ccc(S(=O)(=O)c2nc3ccccc3nc2Nc2ccc(C(F)(F)F)cc2)cc1 | 0.95 µM | 13.5 µM | 2.54 µM | 0.27 µM | 10.3 µM | – | –
Nc1ccc(Nc2nc3ccccc3nc2S(=O)(=O)c2ccccc2)cc1 | 10.8 µM | 12.8 µM | 5.83 µM | 8.72 µM | 3.4 µM | – | –

Structure (SMILES) | IC50 (HCT-116) | IC50 (A549) | IC50 (PC-3) | IC50 (HL-60) | IC50 (KB) | IC50 [1] | inhibition [2]
O=S(=O)(c1ccc(Br)cc1)c1nc2ccccc2nc1Nc1ccc(C(F)(F)F)cc1 | 2.61 µM | > 50 µM | 4.15 µM | 0.28 µM | > 50 µM | – | –
COc1cc(Nc2nc3ccccc3nc2S(=O)(=O)c2ccc(Br)cc2)cc(OC)c1OC | 13 µM | 6.11 µM | 19.8 µM | 1.02 µM | – | – | –
COc1cc(Nc2nc3ccccc3nc2S(=O)(=O)c2ccc(Br)cc2)cc(OC)c1 | > 50 µM | 15.8 µM | 18.2 µM | 2.54 µM | – | – | –
COc1ccc(Nc2nc3ccccc3nc2S(=O)(=O)c2ccc(OC)cc2)cc1 | 29.1 µM | 8.26 µM | 8.71 µM | 1.19 µM | – | – | –
Cc1ccc(S(=O)(=O)c2nc3ccccc3nc2Nc2ccc(Cl)cc2)cc1 | 2.05 µM | 54.2 µM | 9.66 µM | 17.5 µM | 13.8 µM | – | –
O=S(=O)(c1ccccc1)c1nc2ccccc2nc1Nc1ccccc1 | 1.63 µM | 26.3 µM | 0.59 µM | 0.14 µM | 22.6 µM | – | –
O=c1cc(N2CCOCC2)oc2c(-c3ccccc3)cccc12 [LY-294002] | 56 µM | 89.7 µM | 61.4 µM | 9.94 µM | 44.8 µM | – | –
O=S(=O)(c1ccccc1)c1nc2ccccc2nc1Nc1ccc(Cl)cc1 | 2 µM | 30.7 µM | 15.3 µM | 1.92 µM | 41.2 µM | – | –
COc1ccc(S(=O)(=O)c2nc3ccccc3nc2Nc2ccc(C(F)(F)F)cc2)cc1 | 0.11 µM | 4.81 µM | 0.33 µM | 0.22 µM | 0.89 µM | – | –
COc1ccc(S(=O)(=O)c2nc3ccccc3nc2Nc2ccc(F)cc2)cc1 | 2.11 µM | 1.24 µM | 2.2 µM | 0.61 µM | 2.59 µM | – | –
O=S(=O)(c1ccc(Br)cc1)c1nc2ccccc2nc1Nc1cccc(O)c1 | 0.54 µM | 8 µM | 1.7 µM | 0.2 µM | 8.41 µM | 0.47 µM | –
COc1ccc(S(=O)(=O)c2nc3ccccc3nc2Nc2ccc(N)cc2)cc1 | 6.3 µM | 2.99 µM | 9.64 µM | 0.71 µM | 17.8 µM | – | –
O=S(=O)(c1ccc(Br)cc1)c1nc2ccccc2nc1Nc1ccc(Cl)cc1 | 10.6 µM | 61.4 µM | 7.46 µM | 16.4 µM | 11.6 µM | – | –
COc1cc(Nc2nc3ccccc3nc2S(=O)(=O)c2ccc(C)cc2)cc(OC)c1 | > 50 µM | 8.06 µM | 2.94 µM | 0.02 µM | – | – | Active
COc1ccc(S(=O)(=O)c2nc3ccccc3nc2Nc2cc(OC)c(OC)c(OC)c2)cc1 | > 50 µM | 5.17 µM | 7.85 µM | 0.68 µM | – | – | –
Cc1ccc(S(=O)(=O)c2nc3ccccc3nc2Nc2ccccc2)cc1 | 1.07 µM | 12.5 µM | 1.06 µM | 0.4 µM | 19 µM | – | –
O=S(=O)(c1ccccc1)c1nc2ccccc2nc1Nc1ccc(C(F)(F)F)cc1 | 2.09 µM | > 50 µM | 3.55 µM | 0.3 µM | > 50 µM | – | –
Nc1cccc(Nc2nc3ccccc3nc2S(=O)(=O)c2ccccc2)c1 | 1.54 µM | 1.59 µM | 2.15 µM | 1.75 µM | 4.29 µM | – | –
COc1cc(Nc2nc3ccccc3nc2S(=O)(=O)c2ccc(F)cc2)cc(OC)c1OC | 3.11 µM | > 50 µM | > 50 µM | 4.79 µM | – | – | –
Cc1ccc(S(=O)(=O)c2nc3ccccc3nc2Nc2ccc(F)cc2)cc1 | 10.5 µM | 39.2 µM | 13.1 µM | 5.1 µM | 8.95 µM | – | –
Nc1ccc(Nc2nc3ccccc3nc2S(=O)(=O)c2ccc(Br)cc2)cc1 | 1.39 µM | 1.02 µM | 2.33 µM | 0.73 µM | 4.08 µM | – | Active
Nc1cccc(Nc2nc3ccccc3nc2S(=O)(=O)c2ccc(Br)cc2)c1 | 3.28 µM | 1.12 µM | 9.01 µM | 1.37 µM | 5.34 µM | – | –
COc1ccc(Nc2nc3ccccc3nc2S(=O)(=O)c2ccc(C)cc2)cc1 | > 50 µM | > 50 µM | > 50 µM | 2.79 µM | – | – | –

— ChEMBL document CHEMBL1833862, “Synthesis and biological evaluation of novel 2-arylamino-3-(arylsulfonyl)quinoxalines as PI3Kα inhibitors” (Eur J Med Chem, 2011)
